# US20250049776A1, “AUTOPHAGY INDUCING COMPOUNDS AND USES THEREOF, IN PARTICULAR FOR A SYSTEMIC TREATMENT OF DISEASES AND CONDITIONS” (Samsara Therapeutics Inc., priority 2021, published 2025)
# Where a name gives a salt, the structure may show the parent alone. Read-outs that look alike come from different tables or passages of the source.
# System: Human osteosarcoma U20S cells
# Test: Assay to measure lysosome and autolysosome formation (acidic vesicle formation, LysoView/LysoTracker staining)
# Assay type: cell-based
# Settings: for activation at 0.8 µM: Homo sapiens; for activation at 0.8 µM / Activity (percentage increase in acidic vesicle formation), Table 2b More preferred compounds: U2OS cells, concentration of 0.8 μM; for increase in acidic vesicle formation: relative to DMSO-treated control (10 μM)
# Protocol: Lysosomes play a fundamental role in the autophagic pathway by fusing with autophagosomes and creating ‘autolysosomes’ in order to digest their contents. Stimulation of lysosome and autolysosome formation by a compound is indicative of a stimulation of autophagy. The ability of compounds to stimulate lysosome and autolysosome formation, and thus autophagy, in live cells was assessed via fluorescent microscopy using various fluorescent stains for labelling and tracking acidic organelles (including lysosomes and autolysosomes) such as: LysoView™ 650 (70059 and 70059-T, Biotium), LysoViewTM633 (70058 and 70058-T, Biotium) and LysoTracker™ Deep Red (L12492, ThermoFisher Scientific). The cellular phenotype was quantitatively assessed for the induction of acidic vesicle formation and compared to a non-treated control, thus providing a measure of the ability of the compound under investigation to stimulate autophagy.
# Representative procedure using LysoView™633 dye or LysoTracker™ Deep Red dye: Human osteosarcoma U20S cells (40,000 cells/well) were seeded in a 24 well glass bottom plate (Sensoplate, Greiner Bio-One) and were incubated overnight in a humidified atmosphere at 37° C. and 5% CO2. Cells were grown in DMEM (Gibco) supplemented with 10% Fetal Bovine Serum (FBS) and 100 units/ml penicillin and 100 μg/ml streptomycin (Invitrogen). After the attachment period, cells were treated with different compounds of interest (at various concentrations in DMSO) or DMSO (non-treated control) in cell culture medium and were incubated for 24 hours. Compound-containing medium was removed and cells were incubated with pre-warmed cell culture medium containing 1× LysoView™ 633 (70058 and 70058-T, Biotium) or 50 nM LysoTracker™ Deep Red (L12492, ThermoFisher Scientific) for 45 minutes at 37° C. Finally, cell nuclei were stained for 10 minutes using Hoechst 33342 (1 μg/mL) and then the medium was replaced with fresh medium. The 24 well plate was then fitted into a heated stage on the microscope and cells maintained at 37° C. Images were captured using appropriate filter set for Cy5 and DAPI detection with the EVOS M7000 Microscope (ThermoFisher Scientific). The cellular phenotype was visually assessed for the induction of acidic vesicle formation relative to the non-treated control; multiple images were acquired and analyzed using ImageJ or Cell Profiler.
# [1] = read-out: Activity (percentage increase in acidic vesicle formation over the DMSO-treated control), Table 2
# [2] = read-out: Activity (percentage increase in acidic vesicle formation), Table 2a Preferred compounds
SMILES,activation at 0.8 µM [1] [%],further results
"CCCN(C(=O)c1ccc(-c2cnn(-c3ccccc3)c2)o1)C1CCNC1 (stereo not drawn) [Compound 140, 5-(1-phenyl-1H-pyrazol-4-yl)-N-propyl-N-(pyrrolidin-3-yl)furan-2-carboxamide]",10 to 30,
"CCCN(C(=O)c1csc(-c2cnn(-c3ccccc3F)c2)n1)[C@H]1CCNC1 [Compound 92, 2-[1-(2-fluorophenyl)-1H-pyrazol-4-yl]-N-propyl-N-[(3S)-pyrrolidin-3-yl]-1,3-thiazole-4-carboxamide]",50 to 100,activation at 0.8 µM [2]: 50 to 100%
"CCCN(C(=O)c1csc(-c2cnn(-c3ccccc3)c2)n1)[C@H]1CCNC1 [Compound 170, (S)-2-(1-phenyl-1H-pyrazol-4-yl)-N-propyl-N-(pyrrolidin-3-yl)thiazole-4-carboxamide hydrochloride]",10 to 30,
"CC(C)N(C(=O)c1ccc(-c2cnn(-c3ccccc3)c2)[nH]1)C1CCNCC1 [Compound 5, 5-(1-phenyl-1H-pyrazol-4-yl)-N-(piperidin-4-yl)-N-(propan-2-yl)-1H-pyrrole-2-carboxamide]",30 to 50,
"CCCN(C(=O)c1csc(-c2cnn(-c3cccc(OC)c3)c2)n1)[C@@H]1CCNC1 [Compound 56, 2-[1-(3-methoxyphenyl)-1H-pyrazol-4-yl]-N-propyl-N-[(3R)-pyrrolidin-3-yl]-1,3-thiazole-4-carboxamide]",10 to 30,
"CCCN(C(=O)c1csc(-c2cnn(-c3cccc(Cl)c3)c2)n1)[C@H]1CCNC1 [Compound 31, 2-[1-(3-chlorophenyl)-1H-pyrazol-4-yl]-N-propyl-N-[(3S)-pyrrolidin-3-yl]-1,3-thiazole-4-carboxamide]",10 to 30,
"CCCN(C(=O)c1csc(-c2cnn(-c3cccc(C(F)(F)F)c3)c2)n1)[C@@H]1CCNC1 [Compound 49, N-propyl-N-[(3R)-pyrrolidin-3-yl]-2-{1-[3-(trifluoromethyl)phenyl]-1H-pyrazol-4-yl}-1,3-thiazole-4-carboxamide]",30 to 50,
"CC(C)N(C(=O)c1csc(-c2cnn(-c3ccccc3)c2)n1)C1C2CNCC1C2 (stereo not drawn) [Compound 317, N-{3-azabicyclo[3.1.1]heptan-6-yl}-2-(1-phenyl-1H-pyrazol-4-yl)-N-(propan-2-yl)-1,3-thiazole-4-carboxamide]",,"acidic vesicle formation relative to a DMSO-treated control (U20S cells, concentration of 10 μM, 24 hours): only a slight increase; increase in acidic vesicle formation (U20S cells): only a slight increase"
"CC(C)N(C(=O)c1csc(-c2cnn(-c3ccccc3)c2)n1)C1C[C@H]2C[C@@H]1CN2 (stereo partly drawn) [Compound 316, N-[(1R,4R)-2-azabicyclo[2.2.1]heptan-5-yl]-2-(1-phenyl-1H-pyrazol-4-yl)-N-(propan-2-yl)-1,3-thiazole-4-carboxamide]",30 to 50,
"CCCN(C(=O)c1csc(-c2cnc(-c3ccccc3)o2)n1)C1CCNC1 (stereo not drawn) [Compound 116, 2-(2-phenyl-1,3-oxazol-5-yl)-N-propyl-]",50 to 100,activation at 0.8 µM [2]: 50 to 100%
"CCCN(C(=O)c1cc(-c2cnn(-c3ccccc3)c2)c[nH]1)C1CCNC1 (stereo not drawn) [Compound 123, 4-(1-phenyl-1H-pyrazol-4-yl)-N-propyl-N-(pyrrolidin-3-yl)-1H-pyrrole-2-carboxamide]",> 100,"activation at 0.8 µM [2]: 50 to 100%; Activity (percentage increase in acidic vesicle formation), Table 2b More preferred compounds: ++++ (a percentage increase in acidic vesicle of greater than 100% over the DMSO-treated control)"
"CC(C)N(C(=O)c1csc(-c2cnn(-c3ccccc3F)c2)n1)C1CCNCC1 [Compound 95, 2-[1-(2-fluorophenyl)-1H-pyrazol-4-yl]-N-(piperidin-4-yl)-N-(propan-2-yl)-1,3-thiazole-4-carboxamide]",50 to 100,activation at 0.8 µM [2]: 50 to 100%
"CCCN(C(=O)c1csc(-c2ccc(-c3ccccc3)s2)n1)C1CCNC1 (stereo not drawn) [Compound 122, 2-(5-phenylthiophen-2-yl)-N-propyl-N-(pyrrolidin-3-yl)-1,3-thiazole-4-carboxamide]",> 100,"activation at 0.8 µM [2]: 50 to 100%; Activity (percentage increase in acidic vesicle formation), Table 2b More preferred compounds: ++++ (a percentage increase in acidic vesicle of greater than 100% over the DMSO-treated control)"
"NCCOCCNC(=O)c1cc(-c2cnn(-c3ccccc3)c2)cs1 [Compound 110, N-[2-(2-aminoethoxy)ethyl]-4-(1-phenyl-1H-pyrazol-4-yl)thiophene-2-carboxamide]",50 to 100,activation at 0.8 µM [2]: 50 to 100%
"CCCN(C(=O)c1csc(-c2cnn(-c3cccc(OC(F)(F)F)c3)c2)n1)[C@@H]1CCNC1 [Compound 26, N-propyl-N-[(3R)-pyrrolidin-3-yl]-2-{1-[3-(trifluoromethoxy)phenyl]-1H-pyrazol-4-yl}-1,3-thiazole-4-carboxamide]",30 to 50,
"CCCN(C(=O)c1csc(-c2cnn(-c3ccccc3)c2)c1)[C@@H]1CCNC1 [Compound 36, 5-(1-phenyl-1H-pyrazol-4-yl)-N-propyl-N-[(3R)-pyrrolidin-3-yl]thiophene-3-carboxamide]",10 to 30,
"CCCN(C(=O)c1csc(-c2cnn(-c3ccccn3)c2)n1)[C@H]1CCNC1 [Compound 43, N-propyl-2-[1-(pyridin-2-yl)-1H-pyrazol-4-yl]-N-[(3S)-pyrrolidin-3-yl]-1,3-thiazole-4-carboxamide]",10 to 30,
"CCCN(C(=O)c1csc(-c2cnn(-c3ccccc3Cl)c2)n1)[C@H]1CCNC1 [Compound 89, 2-[1-(2-chlorophenyl)-1H-pyrazol-4-yl]-N-propyl-N-[(3S)-pyrrolidin-3-yl]-1,3-thiazole-4-carboxamide]",10 to 30,
"CCCN(C(=O)c1csc(-c2cnn(-c3cccc(OC(F)(F)F)c3)c2)n1)[C@H]1CCNC1 [Compound 25, N-propyl-N-[(3S)-pyrrolidin-3-yl]-2-{1-[3-(trifluoromethoxy)phenyl]-1H-pyrazol-4-yl}-1,3-thiazole-4-carboxamide]",10 to 30,
"NC1CCCN(C(=O)c2csc(-c3cnn(-c4ccccc4)c3)n2)C1 (stereo not drawn) [Compound 167, 1-[2-(1-phenyl-1H-pyrazol-4-yl)-1,3-thiazole-4-carbonyl]piperidin-3-amine]",10 to 30,
"CC(C)N(C(=O)c1csc(-c2cnn(-c3cccnn3)c2)n1)C1CCNCC1 [Compound 323, N-(piperidin-4-yl)-N-(propan-2-yl)-2-[1-(pyridazin-3-yl)-1H-pyrazol-4-yl]-1,3-thiazole-4-carboxamide]",30 to 50,increase in acidic vesicle formation (U20S cells): only a slight increase
"O=C(NC1C[C@@H]2C[C@H]1CN2)c1csc(-c2cnn(-c3ccccc3)c2)n1 (stereo partly drawn) [Compound 327, N-[(1S,4S)-2-azabicyclo[2.2.1]heptan-5-yl]-2-(1-phenyl-1H-pyrazol-4-yl)-1,3-thiazole-4-carboxamide]",30 to 50,
"CCCN(C(=O)c1csc(-c2cnn(-c3ccccc3C)c2)n1)[C@H]1CCNC1 [Compound 87, 2-[1-(2-methylphenyl)-1H-pyrazol-4-yl]-N-propyl-N-[(3S)-pyrrolidin-3-yl]-1,3-thiazole-4-carboxamide]",10 to 30,
"CCCN(C(=O)c1ccc(-c2cnn(-c3ccccc3)c2)[nH]1)[C@H]1CCNC1 [Compound 93, 5-(1-phenyl-1H-pyrazol-4-yl)-N-propyl-N-[(3S)-pyrrolidin-3-yl]-1H-pyrrole-2-carboxamide]",> 100,"activation at 0.8 µM [2]: 50 to 100%; Activity (percentage increase in acidic vesicle formation), Table 2b More preferred compounds: ++++ (a percentage increase in acidic vesicle of greater than 100% over the DMSO-treated control)"
